Measurements published in ChEMBL document CHEMBL1201862, “PubChem BioAssay data set” (2004).
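Five concentrations, 48 hours, 96-well plates. GI50 is the concentration that inhibits growth by half.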 Calls of active or inactive are those of the source. No stated cut-off is given here; in the data, active = GI50 up to about 1.1 µM and inactive = higher.

Columns and labels:
Assay in all cases: inhibition of tumour cell growth, NCI panel, 48 h
786-0 = test system: 786-0
A498 = test system: A498
A549 = test system: A549
ACHN = test system: ACHN
BT-549 = test system: BT-549
CAKI-1 = test system: CAKI-1
CCRF-CEM = test system: CCRF-CEM
COLO 205 = test system: COLO 205
DU-145 = test system: DU-145
EKVX = test system: EKVX
HCT-116 = test system: HCT-116
HCT-15 = test system: HCT-15
HL-60 = test system: HL-60
HOP-62 = test system: HOP-62
HT-29 = test system: HT-29
Hs-578T = test system: Hs-578T
IGROV-1 = test system: IGROV-1
K562 = test system: K562
KM12 = test system: KM12
M14 = test system: M14
MCF7 = test system: MCF7
MDA-MB-231 = test system: MDA-MB-231
MDA-N = test system: MDA-N
MOLT-4 = test system: MOLT-4
NCI-H226 = test system: NCI-H226
NCI-H23 = test system: NCI-H23
NCI-H460 = test system: NCI-H460
NCI/ADR-RES = test system: NCI/ADR-RES
OVCAR-3 = test system: OVCAR-3
OVCAR-5 = test system: OVCAR-5
OVCAR-8 = test system: OVCAR-8
PC-3 = test system: PC-3
RPMI-8226 = test system: RPMI-8226
RXF 393 = test system: RXF 393
SF-268 = test system: SF-268
SF-295 = test system: SF-295
SF-539 = test system: SF-539
SK-MEL-2 = test system: SK-MEL-2
SK-MEL-5 = test system: SK-MEL-5
SN12C = test system: SN12C
SNB-19 = test system: SNB-19
SNB-75 = test system: SNB-75
SR = test system: SR
T47D = test system: T47D
TK-10 = test system: TK-10
UACC-257 = test system: UACC-257
UACC-62 = test system: UACC-62
UO-31 = test system: UO-31
LOX IMVI = test system: LOX IMVI
MDA-MB-435 = test system: MDA-MB-435
Malme-3M = test system: Malme-3M
NCI-H522 = test system: NCI-H522
OVCAR-4 = test system: OVCAR-4
SK-MEL-28 = test system: SK-MEL-28
SK-OV-3 = test system: SK-OV-3
SW-620 = test system: SW-620
U-251 = test system: U-251

Measured: GI50

CCOC(=O)c1c(NS(=O)(=O)c2ccccc2)sc2c1CCCC2
33.7 µM: HCT-15
inactive: 786-0 80.5 µM | A498 98.2 µM | A549 47.9 µM | ACHN 64.6 µM | BT-549 > 100 µM | CAKI-1 > 100 µM | CCRF-CEM 25.5 µM | COLO 205 44.4 µM | DU-145 89.5 µM | EKVX 48.4 µM | HCT-116 37.7 µM | HL-60 57.5 µM | HOP-62 46.5 µM | HT-29 39.4 µM | Hs-578T 82.8 µM | IGROV-1 54.8 µM | K562 30.8 µM | KM12 22.1 µM | M14 81.3 µM | MCF7 46.7 µM | MDA-MB-231 > 100 µM | MDA-N > 100 µM | MOLT-4 40.6 µM | NCI-H226 > 100 µM | NCI-H23 > 100 µM | NCI-H460 > 100 µM | NCI/ADR-RES 62.1 µM | OVCAR-3 22.5 µM | OVCAR-5 > 100 µM | OVCAR-8 56.8 µM | PC-3 39.5 µM | RPMI-8226 26.9 µM | RXF 393 > 100 µM | SF-268 64.9 µM | SF-295 43.6 µM | SF-539 > 100 µM | SK-MEL-2 68.1 µM | SK-MEL-5 74.5 µM | SN12C 66.7 µM | SNB-19 93.1 µM | SNB-75 > 100 µM | SR 59.8 µM | T47D 47.8 µM | TK-10 62.8 µM | UACC-257 81.7 µM | UACC-62 76 µM | UO-31 70.5 µM

Cc1ccc2c(=O)cc(Cc3csc4ccccc34)[nH]c2n1
inactive: 786-0 46.2 µM | A498 32.3 µM | A549 27.4 µM | BT-549 23.3 µM | CAKI-1 44.3 µM | CCRF-CEM 41.4 µM | COLO 205 26.7 µM | DU-145 50.9 µM | EKVX 29.2 µM | HCT-116 28.8 µM | HOP-62 59.2 µM | HT-29 35.1 µM | Hs-578T 12.7 µM | IGROV-1 11.7 µM | K562 43.5 µM | KM12 21.3 µM | LOX IMVI 17.5 µM | M14 32 µM | MCF7 35.2 µM | MDA-MB-231 52.5 µM | MDA-MB-435 32.6 µM | MDA-N 64.7 µM | MOLT-4 38.3 µM | Malme-3M 12.4 µM | NCI-H226 18.1 µM | NCI-H23 19.3 µM | NCI-H522 13.6 µM | NCI/ADR-RES 19.8 µM | OVCAR-3 28.8 µM | OVCAR-4 21.1 µM | OVCAR-5 60 µM | OVCAR-8 36 µM | PC-3 67 µM | RPMI-8226 22.3 µM | RXF 393 25.3 µM | SF-268 21.3 µM | SF-295 26 µM | SK-MEL-28 50.5 µM | SK-MEL-2 79.3 µM | SK-MEL-5 16.4 µM | SK-OV-3 67 µM | SN12C 42.9 µM | SNB-19 39.7 µM | SNB-75 16.6 µM | SW-620 40.7 µM | T47D 19 µM | TK-10 53.5 µM | U-251 69.8 µM | UACC-257 38.6 µM | UACC-62 27 µM | UO-31 22.4 µM
12.1 µM: HCT-15
